These results are taken from patent publication US20250195521A1 (Revolution Medicines, Inc., priority 2020, published 2025).

Like-named read-outs stand apart in the source and are kept apart here.

Broadly, the IC50 is the concentration needed to halve the response being measured.

The target of assay [1] is KRAS G12S (Homo sapiens (Human), UniProt P01116+P62937, G12S). The assay can be described thus: Ras-Raf disruption/FRET/MOA assay (BRAF RBD, Cyclophilin A). Format: biochemical. Conditions: read-out: KRAS G12S FRET IC50. An outline of the steps:
(§1)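 Ras-GMPPNP (12.5 nM), BRAF RBD (50 nM) and 25 μM Cyclophilin A were incubated with compound for 3 h at 25° C, then detected 1.5 h with anti-His Eu and anti-GST APC; IC50 values follow from the reduced TR-FRET ratio.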

Assay [2] has as its target KRAS G13D (Homo sapiens (Human), UniProt P01116+P62937, G13D). The assay is described as above. Format: biochemical. Particulars: read-out: KRAS G13D FRET data IC50. The method, boiled down: as §1
Assay [3] deals with KRAS G12C (Homo sapiens (Human), UniProt P01116+P62937, G12C). The assay is described as above. The format is biochemical. Conditions: read-out: KRAS G12C FRET IC50. An outline of the steps: as §1
In assay [4] the target is KRAS WT (Homo sapiens (Human), UniProt P01116+P62937). The assay is described as above. The format is biochemical. Particulars: read-out: KRAS WT FRET data IC50. An outline of the steps: as §1
Assay [5] addresses KRAS G12D (Homo sapiens (Human), UniProt P01116+P62937, G12D). The assay is described as above. The format is biochemical. Particulars: read-out: KRAS G12D FRET IC50. The method, boiled down: as §1
Assay [6] concerns the target KRAS G12V (Homo sapiens (Human), UniProt P01116+P62937, G12V). The description is as above. Format: biochemical. Conditions: read-out: KRAS G12V FRET IC50. The method, boiled down: as §1
Assay [7] addresses KRAS G13C (Homo sapiens (Human), UniProt P01116+P62937, G13C). The description is as above. Particulars: read-out: KRAS G13C FRET IC50. Format: biochemical. An outline of the steps: as §1
In assay [8] the target is NRAS G12C (Homo sapiens (Human), UniProt P01111+P62937, G12C). The assay is described as above. The format is biochemical. Particulars: read-out: NRAS G12C FRET data IC50. The method, boiled down: (§2)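 First, 25 μM Cyclophilin A, 12.5 nM His6-Ras-GMPPNP and 50 nM GST-BRAF RBD are mixed with diluted compound at pH 7.3. Next, 3 h at 25° C. Then 10 nM anti-His Eu-W1024 plus 50 nM anti-GST allophycocyanin for 1.5 h before TR-FRET reading.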

Assay [9] addresses KRAS WT binding to BRAF RBD (Homo sapiens (Human), UniProt P01116+P62937). The assay can be described thus: Ras-Raf disruption/FRET/MOA assay, KRAS WT. The format is biochemical. An outline of the steps: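 TR-FRET disruption assay: His6-tagged GMPPNP-loaded Ras (12.5 nM), GST-BRAF RBD (50 nM) and Cyclophilin A (25 μM) incubated with compound (10-point 3-fold series from 30 μM) 3 h at 25°C in HEPES pH 7.3 buffer with MgCl2 and NaCl. Anti-His Eu (10 nM)/anti-GST APC (50 nM) added, 1.5 h more; IC50 from FRET-ratio decrease versus DMSO.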

Assay [10] relates to NCI-H358 (K-Ras G12C). In words: CellTiter-Glo cell viability assay, NCI-H358. Format: cell-based, human. Particulars: Homo sapiens, NCI-H358, 120 h. An outline of the steps:
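NCI-H358 cells were treated with test compounds dispensed directly into the assay wells and incubated until day 5. Viability was then read by CellTiter-Glo luminescence after a ~30 min room-temperature equilibration, normalized to the DMSO average (×100), and fit with a four-parameter logistic curve.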
For orientation: In ATP-based viability assays light output follows the ATP content of the culture.

Assay [11] deals with KRAS Q61H (Homo sapiens (Human), UniProt P01116+P62937, Q61H). The assay can be described thus: Ras-Raf disruption/FRET/MOA assay (BRAF RBD, Cyclophilin A). The format is biochemical. The method, boiled down: as §1
For assay [12], the target named is NRAS Q61K (Homo sapiens (Human), UniProt P01111+P62937, Q61K). Described as above. Format: biochemical. The method, boiled down:
as §2

The target in assay [13] is NRAS Q61R (Homo sapiens (Human), UniProt P01111+P62937, Q61R). The assay is described as above. Format: biochemical. An outline of the steps:
as §2

Assay [14] concerns the target NRAS WT (Homo sapiens (Human), UniProt P01111+P62937). The assay is described as above. The format is biochemical. The method, boiled down: as §2
[15] abbreviates: 5-day treatment, read-out: H358 Cell Viability assay data (K-Ras G12C, IC50).

NRAS WT, sequence (P01111 whole entry): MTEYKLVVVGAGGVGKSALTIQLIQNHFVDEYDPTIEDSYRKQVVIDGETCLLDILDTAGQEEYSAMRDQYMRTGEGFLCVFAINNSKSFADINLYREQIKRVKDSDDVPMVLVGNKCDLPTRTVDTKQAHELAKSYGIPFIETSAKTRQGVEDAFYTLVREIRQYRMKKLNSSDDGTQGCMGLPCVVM
NRAS WT, sequence (P62937 whole entry): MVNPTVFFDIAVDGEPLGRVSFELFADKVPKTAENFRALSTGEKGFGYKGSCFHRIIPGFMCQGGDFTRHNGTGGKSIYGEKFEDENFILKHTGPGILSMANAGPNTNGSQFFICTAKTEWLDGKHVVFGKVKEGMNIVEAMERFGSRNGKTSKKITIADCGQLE
KRAS G12C, sequence (P01116-2 other isoform, or with tags, fused parts or gaps G12C): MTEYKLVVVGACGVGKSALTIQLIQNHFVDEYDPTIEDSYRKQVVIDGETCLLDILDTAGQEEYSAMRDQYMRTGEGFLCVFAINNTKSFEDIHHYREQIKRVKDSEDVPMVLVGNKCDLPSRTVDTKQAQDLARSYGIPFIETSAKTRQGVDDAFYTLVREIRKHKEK
KRAS G12C, sequence (P62937 whole entry): as the sequence (P62937 whole entry) above
NRAS G12C, sequence (P01111 whole entry G12C): as the sequence (P01111 whole entry) above, with G12C counted along it
NRAS G12C, sequence (P62937 whole entry): as the sequence (P62937 whole entry) above
KRAS WT binding to BRAF RBD, sequence (P01116 other isoform, or with tags, fused parts or gaps): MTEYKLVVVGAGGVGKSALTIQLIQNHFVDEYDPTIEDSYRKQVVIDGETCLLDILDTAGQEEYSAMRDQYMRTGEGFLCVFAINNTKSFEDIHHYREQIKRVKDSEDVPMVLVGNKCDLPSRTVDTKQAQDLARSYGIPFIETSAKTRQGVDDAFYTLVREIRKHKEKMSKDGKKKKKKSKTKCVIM
KRAS WT binding to BRAF RBD, sequence (P62937 whole entry): as the sequence (P62937 whole entry) above
KRAS WT, sequence (P01116 other isoform, or with tags, fused parts or gaps): as the sequence (P01116 other isoform, or with tags, fused parts or gaps) above
KRAS WT, sequence (P62937 whole entry): as the sequence (P62937 whole entry) above
NRAS Q61R, sequence (P01111 whole entry Q61R): as the sequence (P01111 whole entry) above, with Q61R counted along it
NRAS Q61R, sequence (P62937 whole entry): as the sequence (P62937 whole entry) above
KRAS Q61H, sequence (P01116 other isoform, or with tags, fused parts or gaps Q61H): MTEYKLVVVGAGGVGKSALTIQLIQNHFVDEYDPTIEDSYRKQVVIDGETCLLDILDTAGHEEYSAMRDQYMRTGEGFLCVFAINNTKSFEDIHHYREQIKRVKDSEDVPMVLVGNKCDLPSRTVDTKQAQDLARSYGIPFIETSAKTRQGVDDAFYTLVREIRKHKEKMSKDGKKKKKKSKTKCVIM
KRAS Q61H, sequence (P62937 whole entry): as the sequence (P62937 whole entry) above
KRAS G12V, sequence (P01116 other isoform, or with tags, fused parts or gaps G12V): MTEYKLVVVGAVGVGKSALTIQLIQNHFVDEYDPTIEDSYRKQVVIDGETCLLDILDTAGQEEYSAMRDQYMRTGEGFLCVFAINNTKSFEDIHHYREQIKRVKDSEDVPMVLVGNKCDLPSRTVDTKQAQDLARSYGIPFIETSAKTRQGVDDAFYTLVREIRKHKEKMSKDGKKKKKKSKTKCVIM
KRAS G12V, sequence (P62937 whole entry): as the sequence (P62937 whole entry) above
KRAS G13D, sequence (P01116 other isoform, or with tags, fused parts or gaps G13D): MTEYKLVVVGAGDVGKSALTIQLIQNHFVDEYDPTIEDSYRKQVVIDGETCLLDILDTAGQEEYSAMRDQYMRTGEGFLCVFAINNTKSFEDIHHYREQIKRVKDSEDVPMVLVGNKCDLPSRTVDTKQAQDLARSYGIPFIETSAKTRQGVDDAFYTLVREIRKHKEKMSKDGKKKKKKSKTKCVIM
KRAS G13D, sequence (P62937 whole entry): as the sequence (P62937 whole entry) above
KRAS G12D, sequence (P01116 other isoform, or with tags, fused parts or gaps G12D): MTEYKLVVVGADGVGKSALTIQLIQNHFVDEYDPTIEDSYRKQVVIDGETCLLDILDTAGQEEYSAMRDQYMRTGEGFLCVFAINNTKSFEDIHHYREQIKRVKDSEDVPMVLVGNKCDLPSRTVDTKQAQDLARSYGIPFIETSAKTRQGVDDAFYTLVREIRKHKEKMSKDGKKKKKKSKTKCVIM
KRAS G12D, sequence (P62937 whole entry): as the sequence (P62937 whole entry) above
KRAS G13C, sequence (P01116 other isoform, or with tags, fused parts or gaps G13C): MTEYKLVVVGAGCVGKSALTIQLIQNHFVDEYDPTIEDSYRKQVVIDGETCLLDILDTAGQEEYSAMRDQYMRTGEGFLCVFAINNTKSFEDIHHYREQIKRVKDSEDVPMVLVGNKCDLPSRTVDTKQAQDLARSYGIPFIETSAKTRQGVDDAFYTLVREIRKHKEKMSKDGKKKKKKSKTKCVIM
KRAS G13C, sequence (P62937 whole entry): as the sequence (P62937 whole entry) above
KRAS G12S, sequence (P01116 other isoform, or with tags, fused parts or gaps G12S): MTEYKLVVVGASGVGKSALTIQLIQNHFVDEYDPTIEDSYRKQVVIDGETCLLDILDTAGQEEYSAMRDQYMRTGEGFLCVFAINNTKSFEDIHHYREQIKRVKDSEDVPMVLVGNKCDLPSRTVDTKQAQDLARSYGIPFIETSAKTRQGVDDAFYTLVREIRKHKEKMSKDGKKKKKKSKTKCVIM
KRAS G12S, sequence (P62937 whole entry): as the sequence (P62937 whole entry) above
NRAS Q61K, sequence (P01111 whole entry Q61K): as the sequence (P01111 whole entry) above, with Q61K counted along it
NRAS Q61K, sequence (P62937 whole entry): as the sequence (P62937 whole entry) above

For the compound `CCn1c(-c2cccnc2[C@H](C)OC)c2c3cc(ccc31)-c1cc(O)cc(c1)C[C@H](NC(=O)[C@@H](C(C)C)N(C)C(C)=O)C(=O)N1CCC[C@H](N1)C(=O)OCC(C)(C)C2` [Compound A256], the IC50 in [1] was 1000 to 10000 nM; in assay [2], 1000 to 10000 nM; in assay [3], 1000 to 10000 nM; in assay [4], 1000 to 10000 nM; in assay [5] it was more than 10000 nM; in assay [6], 1000 to 10000 nM. The IC50 lay in the range of 100 to 1000 nM in [7], 1000 to 10000 nM in assay [8] and 10 to 100 nM in assay [9].

Consider `CCn1c(-c2cccnc2[C@H](C)OC)c2c3cc(ccc31)-c1csc(n1)C[C@H](NC(=O)[C@H](C(C)C)N(C)C(=O)N1CC(N3CCC3)C1)C(=O)N1CCC[C@H](N1)C(=O)OCC(C)(C)C2` [Compound A295], for which the half-inhibitory concentration (IC50) in assay [1] was in the range of 100 to 1000 nM; in assay [2] it was 100 to 1000 nM; in assay [3], 100 to 1000 nM; in [4] it was 100 to 1000 nM; in assay [5] it was 1000 to 10000 nM; in [6], 100 to 1000 nM. Also, the IC50 in assay [7] is 100 to 1000 nM; in [8] it was 100 to 1000 nM; in assay [9], 10 to 100 nM; in assay [10] (setting [15]), less than 0.01 µM.

`CCn1c(-c2cccnc2[C@H](C)OC)c2c3cc(ccc31)-c1csc(n1)C[C@H](NC(=O)[C@H](C(C)C)N(C)C(=O)N1C[C@H](C)N(C)C[C@H]1C)C(=O)N1CCC[C@H](N1)C(=O)OCC(C)(C)C2` [Compound A300]: the IC50 in [1], in [2], in [3], in assay [4], in assay [5] and in assay [6] was 1000 to 10000 nM each time. The IC50 is 1000 to 10000 nM in assay [7], 1000 to 10000 nM in assay [8] and 10 to 100 nM in assay [9].

As for `CCn1c(-c2cccnc2[C@H](C)OC)c2c3cc(ccc31)-c1csc(n1)C[C@H](NC(=O)[C@H](C(C)C)N(C)C(=O)N1CC(N3CCOCC3)C1)C(=O)N1CCC[C@H](N1)C(=O)OCC(C)(C)C2` [Compound A338], the IC50 lay within 100 to 1000 nM in [1]; 100 to 1000 nM in [2]; 10 to 100 nM in assay [3]; 100 to 1000 nM in assay [4]; 1000 to 10000 nM in [5]; 100 to 1000 nM in [6]. Moreover, the IC50 in assay [7] lay within 100 to 1000 nM; in [8], 10 to 100 nM; in assay [9] it was 10 to 100 nM; in assay [10] (setting [15]) it was 0.01 to 0.1 µM.

As for `CCn1c(-c2cccnc2[C@H](C)OC)c2c3cc(ccc31)-c1csc(n1)C[C@H](NC(=O)C1CC1)C(=O)N1CCC[C@H](N1)C(=O)OCC(C)(C)C2` [Compound A367], the IC50 in [1] is 100 to 1000 nM; in assay [11], 100 to 1000 nM; in assay [2] it was 1000 to 10000 nM; in [3], 100 to 1000 nM; in assay [4], 100 to 1000 nM; in assay [12] it was 100 to 1000 nM. Moreover, the concentration for half-maximal inhibition (IC50) in [5] lay within 1000 to 10000 nM; in [6], 100 to 1000 nM; in assay [13] it was 1000 to 10000 nM; in [7], 100 to 1000 nM; in assay [8], 100 to 1000 nM; in assay [14] it was 100 to 1000 nM. The IC50 in assay [9] lay within 10 to 100 nM; in assay [10] (setting [15]) it was 0.01 to 0.1 µM.

`CCn1c(-c2cccnc2[C@H](C)OC)c2c3cc(ccc31)-c1cc(O)cc(c1)C[C@H](NC(=O)[C@H](C(C)C)N(C)C(=O)[C@H]1CCN(C(=O)[C@@H](C)N(C)C)C1)C(=O)N1CCC[C@H](N1)C(=O)OCC(C)(C)C2` [Compound A386]: the 50% inhibitory concentration (IC50) in assay [1] lay in the range of 10 to 100 nM; in [2], 10 to 100 nM; in [3], 10 to 100 nM; in assay [4], 10 to 100 nM; in [5] it was 10 to 100 nM; in assay [6] it was 100 to 1000 nM. The IC50 in [7], in assay [8] and in [9] was 10 to 100 nM throughout.

`CCn1c(-c2cccnc2[C@H](C)OC)c2c3cc(ccc31)-c1cc(O)cc(c1)C[C@H](NC(=O)[C@H](C(C)C)N(C)C(=O)C1CNCCNC1)C(=O)N1CCC[C@H](N1)C(=O)OCC(C)(C)C2` [Compound A432]: the IC50 fell in the range of 100 to 1000 nM in assay [1]; 10 to 100 nM in assay [2]; 10 to 100 nM in [3]; 100 to 1000 nM in assay [4]; 100 to 1000 nM in [5]; 1000 to 10000 nM in assay [6]. Besides, the IC50 in assay [7] lay within 10 to 100 nM; in assay [8] it was 10 to 100 nM; in assay [9], 10 to 100 nM; in assay [10] (setting [15]), 0.01 to 0.1 µM.

Consider `CCn1c(-c2cccnc2[C@H](C)OC)c2c3cc(ccc31)-c1csc(n1)C[C@H](NC(=O)[C@H](C(C)C)N(C)C(=O)N1CCC[C@H](N(C)C)CC1)C(=O)N1CCC[C@H](N1)C(=O)OCC(C)(C)C2` [Compound A493], for which the IC50 in [1] lay within 100 to 1000 nM; in assay [11], 10 to 100 nM; in assay [2], 100 to 1000 nM; in [3], 10 to 100 nM; in assay [4], 10 to 100 nM; in assay [5], 100 to 1000 nM. Besides, the IC50 in [6] fell in the range of 100 to 1000 nM; in assay [13], 100 to 1000 nM; in assay [7], 100 to 1000 nM; in assay [8] it was 10 to 100 nM; in assay [14], 10 to 100 nM; in [9] it was 10 to 100 nM. In addition, the IC50 in assay [10] (setting [15]) is less than 0.01 µM.

`CCn1c(-c2cccnc2[C@H](C)OC)c2c3cc(ccc31)-c1csc(n1)C[C@H](NC(=O)[C@H](C(C)C)N(C)C(=O)N1CCN3C(=O)CN(C)C[C@H]3C1)C(=O)N1CCC[C@H](N1)C(=O)OCC(C)(C)C2` [Compound A537]: the IC50 fell in the range of 10 to 100 nM in assay [1]; 10 to 100 nM in assay [11]; 100 to 1000 nM in [2]; 10 to 100 nM in assay [3]; 10 to 100 nM in [4]; 100 to 1000 nM in assay [5]. Moreover, the IC50 was in the range of 100 to 1000 nM in assay [6]; 100 to 1000 nM in [13]; 100 to 1000 nM in assay [7]; 10 to 100 nM in assay [8]; 10 to 100 nM in assay [14]; 10 to 100 nM in assay [9]. For the same compound, the IC50 in assay [10] (setting [15]) is less than 0.01 µM.

As to `CCn1c(-c2cccnc2[C@H](C)OC)c2c3cc(ccc31)-c1csc(n1)[C@@H](OC)[C@H](NC(=O)[C@H](C(C)C)N(C)C(=O)N(C)C)C(=O)N1CCC[C@H](N1)C(=O)OCC(C)(C)C2` [Compound A598, (2S)—N-((6^3S,3S,4S,Z)-1^1-ethyl-3-methoxy-1^2-(2-((S)-1-methoxyethyl)pyridin-3-yl)-10,10-dimethyl-5,7-dioxo-6^1,6^2,6^3,6^4,6^5,6^6-hexahydro-1^1H-8-oxa-2 (4,2)-thiazola-1 (5,3)-indola-6 (1,3)-pyridazinacycloundecaphane-4-yl)-3-methyl-2-(1,3,3-trimethylureido) butanamide], the IC50 in [1] was 100 to 1000 nM; in assay [11], 100 to 1000 nM; in assay [2], 100 to 1000 nM; in assay [3], 10 to 100 nM; in [4], 100 to 1000 nM; in assay [5] it was 1000 to 10000 nM. In addition, the IC50 in assay [6] lay in the range of 100 to 1000 nM; in [13] it was 100 to 1000 nM; in [7] it was 100 to 1000 nM; in assay [8], 10 to 100 nM; in assay [14] it was 100 to 1000 nM; in assay [9], 10 to 100 nM. Also, in [10] (read-out: H358 Cell Viability assay data (K-Ras G12C, IC50, uM), 5-day treatment), the IC50 lay in the range of 0.01 to 0.1 µM.
